According to the CheMixHub viscosity set:

Assay: xn = mol fraction of the nth substance listed

CCCCC + CCCCCCCCCCCC
Conditions	viscosity [mPa·s]
293.15 K, 100 kPa, x1 = 0.0988	1.33
293.15 K, 100 kPa, x1 = 0.2004	1.153
293.15 K, 100 kPa, x1 = 0.2963	0.995
293.15 K, 100 kPa, x1 = 0.4022	0.847
293.15 K, 100 kPa, x1 = 0.5005	0.686
293.15 K, 100 kPa, x1 = 0.5989	0.581
293.15 K, 100 kPa, x1 = 0.7029	0.468
293.15 K, 100 kPa, x1 = 0.8	0.388
293.15 K, 100 kPa, x1 = 0.9011	0.304
298.15 K, 100 kPa, x1 = 0.0988	1.216
298.15 K, 100 kPa, x1 = 0.2004	1.054
298.15 K, 100 kPa, x1 = 0.2963	0.923
298.15 K, 100 kPa, x1 = 0.4022	0.79
298.15 K, 100 kPa, x1 = 0.5005	0.642
298.15 K, 100 kPa, x1 = 0.5989	0.548
298.15 K, 100 kPa, x1 = 0.7029	0.443
298.15 K, 100 kPa, x1 = 0.8	0.369
298.15 K, 100 kPa, x1 = 0.9011	0.289
298.15 K, 101.33 kPa, x1 = 0.1094	1.194
298.15 K, 101.33 kPa, x1 = 0.2073	1.037
298.15 K, 101.33 kPa, x1 = 0.299	0.9143
298.15 K, 101.33 kPa, x1 = 0.4078	0.7711
298.15 K, 101.33 kPa, x1 = 0.5008	0.6622
298.15 K, 101.33 kPa, x1 = 0.6031	0.5504
298.15 K, 101.33 kPa, x1 = 0.7069	0.4481
298.15 K, 101.33 kPa, x1 = 0.8062	0.3631
298.15 K, 101.33 kPa, x1 = 0.8991	0.2925
303.15 K, 100 kPa, x1 = 0.0988	1.119
303.15 K, 100 kPa, x1 = 0.2004	0.975
303.15 K, 100 kPa, x1 = 0.2963	0.857
303.15 K, 100 kPa, x1 = 0.4022	0.738
303.15 K, 100 kPa, x1 = 0.5005	0.603
303.15 K, 100 kPa, x1 = 0.5989	0.516
303.15 K, 100 kPa, x1 = 0.7029	0.42
303.15 K, 100 kPa, x1 = 0.8	0.358
303.15 K, 100 kPa, x1 = 0.9011	0.275
308.15 K, 100 kPa, x1 = 0.0988	1.032
308.15 K, 100 kPa, x1 = 0.2004	0.906
308.15 K, 100 kPa, x1 = 0.2963	0.8
308.15 K, 100 kPa, x1 = 0.4022	0.693
308.15 K, 100 kPa, x1 = 0.5005	0.568
308.15 K, 100 kPa, x1 = 0.5989	0.489
308.15 K, 100 kPa, x1 = 0.7029	0.399
308.15 K, 100 kPa, x1 = 0.8	0.34
313.15 K, 100 kPa, x1 = 0.0988	0.957
313.15 K, 100 kPa, x1 = 0.2004	0.843
313.15 K, 100 kPa, x1 = 0.2963	0.748
313.15 K, 100 kPa, x1 = 0.4022	0.65
313.15 K, 100 kPa, x1 = 0.5005	0.536
313.15 K, 100 kPa, x1 = 0.5989	0.463
313.15 K, 100 kPa, x1 = 0.7029	0.38
318.15 K, 100 kPa, x1 = 0.0988	0.89
318.15 K, 100 kPa, x1 = 0.2004	0.789
318.15 K, 100 kPa, x1 = 0.2963	0.702
318.15 K, 100 kPa, x1 = 0.4022	0.612
318.15 K, 100 kPa, x1 = 0.5005	0.507
318.15 K, 100 kPa, x1 = 0.5989	0.44
323.15 K, 100 kPa, x1 = 0.0988	0.83
323.15 K, 100 kPa, x1 = 0.2004	0.734
323.15 K, 100 kPa, x1 = 0.2963	0.66
323.15 K, 100 kPa, x1 = 0.4022	0.578
323.15 K, 100 kPa, x1 = 0.5005	0.481

CCCCC + CCCO
298.15 K, 101.33 kPa
Conditions	viscosity [mPa·s]
x2 = 0.0291	0.242
x2 = 0.0777	0.256
x2 = 0.1952	0.29
x2 = 0.3332	0.357
x2 = 0.403	0.41
x2 = 0.4771	0.484
x2 = 0.6076	0.666
x2 = 0.7373	0.949
x2 = 0.8545	1.333
x2 = 0.9586	1.778

OC1CCCCC1 + Oc1ccccc1
298.15 K, 101.3 kPa
Conditions	viscosity [mPa·s]
x1 = 0.79	27.6
x1 = 0.89	37.1

CCOC(=O)C(C)O (centres undefined) + C1CCOC1
101 kPa
Conditions	viscosity [mPa·s]
308.15 K, x1 = 0.6999	1.255
313.15 K, x1 = 0.4001	0.7575

CCCCCCCCCCCCCC[P+](CCCCCC)(CCCCCC)CCCCCC.c1ccc2[n-]nnc2c1 + O=C=O
Conditions	viscosity [mPa·s]
298.15 K, 100 kPa, x2 = 0.19	443

CCCCCCCO + CCCCO
viscosity [mPa·s], 101 kPa
Conditions	298.15 K	308.15 K	318.15 K
x2 = 0.08	5.586	4.11	3.063
x2 = 0.15	5.398	3.965	2.971
x2 = 0.22	5.211	3.829	2.883
x2 = 0.28	5.027	3.7	2.798
x2 = 0.34	4.844	3.576	2.714
x2 = 0.4	4.664	3.456	2.632
x2 = 0.46	4.487	3.34	2.551
x2 = 0.51	4.313	3.226	2.47
x2 = 0.56	4.142	3.115	2.391
x2 = 0.61	3.976	3.004	2.312
x2 = 0.66	3.813	2.894	2.233
x2 = 0.7	3.654	2.785	2.155
x2 = 0.74	3.499	2.677	2.077
x2 = 0.79	3.348	2.57	2
x2 = 0.82	3.201	2.463	1.923
x2 = 0.86	3.058	2.359	1.847
x2 = 0.9	2.919	2.256	1.772
x2 = 0.93	2.783	2.157	1.698
x2 = 0.97	2.652	2.061	1.627
